Legend:
Assay in all cases: Large panel kinase profiling
Format in all cases: biochemical
Settings in all cases: 1 μM test article, 1 mM ATP
DYRK3 = target: T1, DYRK3 (Homo sapiens, UniProt O43781)
T1 construct: AssayQuant Technologies, Inc. (service laboratory)
T1 sequence (O43781 1-588): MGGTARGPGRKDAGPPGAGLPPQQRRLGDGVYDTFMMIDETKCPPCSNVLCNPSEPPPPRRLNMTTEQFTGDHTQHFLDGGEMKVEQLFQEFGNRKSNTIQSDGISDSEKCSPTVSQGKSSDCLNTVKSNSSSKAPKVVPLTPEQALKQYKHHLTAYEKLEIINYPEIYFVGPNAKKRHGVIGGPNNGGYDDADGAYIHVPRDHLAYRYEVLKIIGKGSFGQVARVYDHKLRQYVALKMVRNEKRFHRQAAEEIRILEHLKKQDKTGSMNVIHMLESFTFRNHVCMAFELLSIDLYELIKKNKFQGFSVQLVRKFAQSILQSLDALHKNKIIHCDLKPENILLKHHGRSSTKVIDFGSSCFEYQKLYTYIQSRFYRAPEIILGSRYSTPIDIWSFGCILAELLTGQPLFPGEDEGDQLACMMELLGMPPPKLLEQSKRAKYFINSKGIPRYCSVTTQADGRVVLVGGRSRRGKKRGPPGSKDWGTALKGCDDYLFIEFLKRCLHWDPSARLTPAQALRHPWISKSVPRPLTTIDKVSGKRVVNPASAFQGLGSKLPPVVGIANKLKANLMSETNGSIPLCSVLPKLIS
Method in brief: (§1)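 With ATP fixed at 1 mM, each kinase was exposed to 1 μM compound in a PhosphoSens CSox-Sensor reaction. Sealed plates were incubated at 30° C. and read in kinetic mode.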

FYNA = target: T2, FYNA (Homo sapiens, UniProt P06241)
T2 construct: AssayQuant Technologies, Inc. (service provider)
T2 sequence (P06241 whole entry): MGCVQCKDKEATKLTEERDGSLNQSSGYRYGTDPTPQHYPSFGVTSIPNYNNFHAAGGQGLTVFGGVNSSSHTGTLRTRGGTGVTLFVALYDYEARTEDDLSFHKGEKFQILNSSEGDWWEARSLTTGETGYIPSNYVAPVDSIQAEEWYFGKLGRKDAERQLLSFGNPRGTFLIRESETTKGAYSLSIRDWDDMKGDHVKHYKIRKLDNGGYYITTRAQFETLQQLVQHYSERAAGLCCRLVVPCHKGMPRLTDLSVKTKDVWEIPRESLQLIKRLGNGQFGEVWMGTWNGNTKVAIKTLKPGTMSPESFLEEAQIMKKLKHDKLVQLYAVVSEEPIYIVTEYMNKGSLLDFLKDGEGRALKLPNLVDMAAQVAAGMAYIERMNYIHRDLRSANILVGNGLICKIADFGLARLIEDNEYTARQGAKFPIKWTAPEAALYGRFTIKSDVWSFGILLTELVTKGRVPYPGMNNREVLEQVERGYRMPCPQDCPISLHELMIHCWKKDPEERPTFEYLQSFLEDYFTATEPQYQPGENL
Method in brief: as §1

JAK3(JH1) = target: T3, JAK3(JH1) (Homo sapiens, UniProt P52333)
T3 construct: JAK3(JH1)
Method in brief: as §1

AKT2 = AKT2 (Homo sapiens, UniProt P31751)
Chain of AKT2 (P31751 whole entry): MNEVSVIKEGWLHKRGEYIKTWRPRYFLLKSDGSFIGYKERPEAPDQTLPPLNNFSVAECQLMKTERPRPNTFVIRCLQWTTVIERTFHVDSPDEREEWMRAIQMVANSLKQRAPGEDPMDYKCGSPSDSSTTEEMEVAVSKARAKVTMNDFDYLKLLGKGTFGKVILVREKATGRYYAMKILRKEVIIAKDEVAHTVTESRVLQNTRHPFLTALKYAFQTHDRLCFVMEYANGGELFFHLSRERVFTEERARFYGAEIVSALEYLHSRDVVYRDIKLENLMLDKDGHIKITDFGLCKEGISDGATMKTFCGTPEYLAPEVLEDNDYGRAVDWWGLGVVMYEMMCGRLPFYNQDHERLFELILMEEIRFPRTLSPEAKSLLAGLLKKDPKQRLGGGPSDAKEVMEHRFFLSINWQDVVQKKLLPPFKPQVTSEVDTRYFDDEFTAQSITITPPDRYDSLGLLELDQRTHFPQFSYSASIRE
Method in brief: as §1

PAK1 = PAK1 (Homo sapiens, UniProt Q13153)
Chain of PAK1 (Q13153 whole entry): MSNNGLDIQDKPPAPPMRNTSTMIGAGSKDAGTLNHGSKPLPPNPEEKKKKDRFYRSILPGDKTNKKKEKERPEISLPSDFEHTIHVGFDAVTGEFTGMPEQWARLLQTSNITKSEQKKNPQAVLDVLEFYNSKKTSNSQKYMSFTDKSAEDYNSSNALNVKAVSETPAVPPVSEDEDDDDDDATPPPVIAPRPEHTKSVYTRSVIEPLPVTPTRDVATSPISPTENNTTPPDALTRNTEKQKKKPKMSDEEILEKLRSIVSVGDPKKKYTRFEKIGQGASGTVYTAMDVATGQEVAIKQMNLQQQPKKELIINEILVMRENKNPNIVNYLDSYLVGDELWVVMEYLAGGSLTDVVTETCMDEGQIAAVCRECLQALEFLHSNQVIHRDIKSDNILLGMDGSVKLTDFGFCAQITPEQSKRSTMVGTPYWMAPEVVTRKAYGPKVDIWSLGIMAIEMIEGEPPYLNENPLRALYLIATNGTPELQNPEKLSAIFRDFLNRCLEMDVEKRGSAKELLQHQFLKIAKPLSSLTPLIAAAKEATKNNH
Method in brief: as §1

JAK2(JH1JH2) = target: T4, JAK2(JH1JH2) (Homo sapiens, UniProt O60674)
T4 construct: JAK2(JH1JH2)
T4 sequence (O60674 532-1132 limits assumed, species assumed): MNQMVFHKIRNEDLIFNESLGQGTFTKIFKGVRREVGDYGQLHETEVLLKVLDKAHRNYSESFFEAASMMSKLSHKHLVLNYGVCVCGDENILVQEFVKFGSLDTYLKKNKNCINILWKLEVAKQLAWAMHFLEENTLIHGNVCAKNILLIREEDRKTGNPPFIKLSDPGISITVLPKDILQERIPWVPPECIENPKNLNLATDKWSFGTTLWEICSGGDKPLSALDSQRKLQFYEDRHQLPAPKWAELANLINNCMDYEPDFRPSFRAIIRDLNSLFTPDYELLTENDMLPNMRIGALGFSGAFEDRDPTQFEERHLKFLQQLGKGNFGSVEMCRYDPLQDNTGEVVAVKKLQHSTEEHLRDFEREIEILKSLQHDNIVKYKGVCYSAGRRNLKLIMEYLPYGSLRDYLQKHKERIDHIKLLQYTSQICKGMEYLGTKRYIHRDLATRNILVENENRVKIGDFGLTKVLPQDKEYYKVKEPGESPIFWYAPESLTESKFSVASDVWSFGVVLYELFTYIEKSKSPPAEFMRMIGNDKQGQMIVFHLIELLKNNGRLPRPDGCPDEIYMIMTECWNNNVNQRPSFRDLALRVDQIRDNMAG
Method in brief: as §1

LTK = LTK (Homo sapiens, UniProt P29376)
Chain of LTK (P29376 17-864, species assumed): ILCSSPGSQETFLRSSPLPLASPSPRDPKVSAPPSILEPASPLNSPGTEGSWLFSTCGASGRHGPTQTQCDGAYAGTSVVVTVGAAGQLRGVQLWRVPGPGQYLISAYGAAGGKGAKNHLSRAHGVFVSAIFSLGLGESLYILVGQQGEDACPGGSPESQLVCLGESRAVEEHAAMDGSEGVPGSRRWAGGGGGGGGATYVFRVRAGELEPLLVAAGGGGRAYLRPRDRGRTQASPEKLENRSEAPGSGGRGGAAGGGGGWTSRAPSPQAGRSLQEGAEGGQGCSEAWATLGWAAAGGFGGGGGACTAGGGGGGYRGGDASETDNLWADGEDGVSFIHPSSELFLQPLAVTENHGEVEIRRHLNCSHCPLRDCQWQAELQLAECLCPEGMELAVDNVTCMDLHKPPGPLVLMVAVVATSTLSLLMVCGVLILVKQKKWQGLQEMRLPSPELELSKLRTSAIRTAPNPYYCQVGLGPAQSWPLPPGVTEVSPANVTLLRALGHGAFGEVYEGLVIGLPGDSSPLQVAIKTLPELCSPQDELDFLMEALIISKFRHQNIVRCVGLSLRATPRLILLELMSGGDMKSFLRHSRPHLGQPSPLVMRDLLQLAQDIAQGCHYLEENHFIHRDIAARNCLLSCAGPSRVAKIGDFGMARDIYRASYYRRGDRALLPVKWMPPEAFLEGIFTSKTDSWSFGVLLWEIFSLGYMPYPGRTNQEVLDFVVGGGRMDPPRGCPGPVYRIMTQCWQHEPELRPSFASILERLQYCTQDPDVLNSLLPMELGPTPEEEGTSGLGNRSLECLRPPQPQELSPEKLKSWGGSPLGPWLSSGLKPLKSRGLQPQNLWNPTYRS
Method in brief: as §1

GRK6 = target: T5, GRK6 (Homo sapiens, UniProt P43250)
T5 construct: AssayQuant Technologies, Inc. (service provider)
Method in brief: as §1

PRKCB1/PKCB1 = PRKCB1/PKCB1 (Homo sapiens, UniProt P05771)
Chain of PRKCB1/PKCB1 (P05771 whole entry): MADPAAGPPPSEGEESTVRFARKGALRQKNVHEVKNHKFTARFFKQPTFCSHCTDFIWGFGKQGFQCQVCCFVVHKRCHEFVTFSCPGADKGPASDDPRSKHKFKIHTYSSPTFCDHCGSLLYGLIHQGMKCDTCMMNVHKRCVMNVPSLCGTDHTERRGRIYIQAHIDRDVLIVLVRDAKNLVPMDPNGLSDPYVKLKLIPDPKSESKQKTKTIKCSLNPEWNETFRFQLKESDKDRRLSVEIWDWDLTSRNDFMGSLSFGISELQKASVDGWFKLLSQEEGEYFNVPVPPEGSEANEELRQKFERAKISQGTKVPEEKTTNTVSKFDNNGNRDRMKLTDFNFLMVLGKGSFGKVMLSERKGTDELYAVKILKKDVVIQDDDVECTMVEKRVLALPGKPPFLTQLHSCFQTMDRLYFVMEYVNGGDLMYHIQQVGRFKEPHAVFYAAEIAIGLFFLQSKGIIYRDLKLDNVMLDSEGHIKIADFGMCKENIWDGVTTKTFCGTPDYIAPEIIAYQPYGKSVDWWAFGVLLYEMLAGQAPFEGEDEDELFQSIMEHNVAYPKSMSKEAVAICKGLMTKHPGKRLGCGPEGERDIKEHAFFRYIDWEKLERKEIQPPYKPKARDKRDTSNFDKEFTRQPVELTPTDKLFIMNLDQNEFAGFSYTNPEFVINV
Method in brief: as §1

DAPK3 = target: T6, DAPK3 (Homo sapiens, UniProt O43293)
T6 construct: AssayQuant Technologies, Inc. (service laboratory)
Method in brief: as §1

DYRK2 = target: T7, DYRK2 (Homo sapiens, UniProt Q92630)
T7 construct: AssayQuant Technologies, Inc. (service laboratory)
T7 sequence (Q92630 1-601): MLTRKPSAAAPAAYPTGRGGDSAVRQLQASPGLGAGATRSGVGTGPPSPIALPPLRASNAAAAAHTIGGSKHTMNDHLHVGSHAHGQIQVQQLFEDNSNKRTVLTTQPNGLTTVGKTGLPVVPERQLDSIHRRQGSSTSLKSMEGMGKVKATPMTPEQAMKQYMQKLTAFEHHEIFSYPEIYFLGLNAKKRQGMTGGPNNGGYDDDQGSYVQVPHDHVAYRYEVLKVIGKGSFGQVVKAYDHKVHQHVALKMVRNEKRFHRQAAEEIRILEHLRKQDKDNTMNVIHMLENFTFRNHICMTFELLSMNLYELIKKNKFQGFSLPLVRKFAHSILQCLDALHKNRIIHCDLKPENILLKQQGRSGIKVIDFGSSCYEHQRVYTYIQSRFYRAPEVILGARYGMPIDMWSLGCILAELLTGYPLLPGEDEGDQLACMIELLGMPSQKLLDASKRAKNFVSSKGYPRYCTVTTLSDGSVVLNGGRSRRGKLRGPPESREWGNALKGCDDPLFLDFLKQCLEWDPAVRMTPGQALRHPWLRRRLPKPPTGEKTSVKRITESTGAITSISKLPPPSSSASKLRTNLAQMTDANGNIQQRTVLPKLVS
Method in brief: as §1

CAMK2A = CAMK2A (Homo sapiens, UniProt Q9UQM7)
Chain of CAMK2A (Q9UQM7 whole entry): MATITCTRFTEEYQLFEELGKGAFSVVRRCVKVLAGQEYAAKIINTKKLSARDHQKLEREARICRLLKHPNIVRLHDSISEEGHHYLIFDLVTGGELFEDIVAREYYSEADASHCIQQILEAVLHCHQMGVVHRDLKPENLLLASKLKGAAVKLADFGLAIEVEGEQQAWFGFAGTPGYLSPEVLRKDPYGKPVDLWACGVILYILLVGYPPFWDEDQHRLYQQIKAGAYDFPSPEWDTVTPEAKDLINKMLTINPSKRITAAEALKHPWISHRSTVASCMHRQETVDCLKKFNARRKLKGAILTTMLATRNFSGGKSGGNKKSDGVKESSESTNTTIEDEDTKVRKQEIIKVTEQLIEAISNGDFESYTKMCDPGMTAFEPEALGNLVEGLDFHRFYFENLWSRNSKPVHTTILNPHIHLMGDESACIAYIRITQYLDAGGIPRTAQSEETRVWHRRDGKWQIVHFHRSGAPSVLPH
Method in brief: as §1

MAPK11/P38B = target: T8, MAPK11/P38B (Homo sapiens, UniProt Q15759)
T8 construct: AssayQuant Technologies, Inc. (service provider)
T8 sequence (Q15759 whole entry): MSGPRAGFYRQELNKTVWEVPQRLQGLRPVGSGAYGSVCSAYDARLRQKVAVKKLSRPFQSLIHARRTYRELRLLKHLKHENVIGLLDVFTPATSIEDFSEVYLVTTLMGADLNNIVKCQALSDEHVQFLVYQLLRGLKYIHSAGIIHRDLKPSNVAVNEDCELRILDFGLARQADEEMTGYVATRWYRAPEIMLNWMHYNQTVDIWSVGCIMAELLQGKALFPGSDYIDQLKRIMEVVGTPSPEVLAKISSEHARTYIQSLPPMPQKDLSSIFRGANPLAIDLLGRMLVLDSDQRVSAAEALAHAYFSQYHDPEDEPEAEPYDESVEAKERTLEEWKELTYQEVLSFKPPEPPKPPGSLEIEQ
Method in brief: as §1

NEK6 = target: T9, NEK6 (Homo sapiens, UniProt Q9HC98)
T9 construct: AssayQuant Technologies, Inc. (assay service)
T9 sequence (Q9HC98 whole entry, species assumed): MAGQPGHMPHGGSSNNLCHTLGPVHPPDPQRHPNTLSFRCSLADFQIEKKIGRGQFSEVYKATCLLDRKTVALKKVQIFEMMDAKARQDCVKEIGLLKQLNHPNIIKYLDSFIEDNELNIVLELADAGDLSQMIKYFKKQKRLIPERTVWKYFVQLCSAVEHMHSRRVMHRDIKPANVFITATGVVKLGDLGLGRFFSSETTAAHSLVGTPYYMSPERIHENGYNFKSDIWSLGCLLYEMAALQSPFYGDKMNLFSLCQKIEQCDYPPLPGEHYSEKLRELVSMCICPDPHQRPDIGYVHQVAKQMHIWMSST
Method in brief: as §1

CAMKK2 = target: T10, CAMKK2 (Homo sapiens, UniProt Q96RR4)
T10 construct: AssayQuant Technologies, Inc. (ran the panel)
Method in brief: as §1

Q: With `C=CC(=O)N1CCCC(c2c(F)cc(C(N)=O)c3[nH]c4c(c23)CCCCC4)C1` (single isomer, unassigned) [Compound 5-6] as the compound, how does the inhibition at 1 µM (DYRK3) read?
A: 2.8%

Q: What about the inhibition at 1 µM (FYNA) of the same compound?
A: 12%

Q: What about the inhibition at 1 µM (JAK3(JH1)) of the same compound?
A: 2%

Q: What about the inhibition at 1 µM (AKT2) of the same compound?
A: 0.5%

Q: What about the inhibition at 1 µM (PAK1) of the same compound?
A: 9.3%

Q: And the inhibition at 1 µM (JAK2(JH1JH2))?
A: 1%

Q: What about the inhibition at 1 µM (LTK) of the same compound?
A: 0.6%

Q: What about the inhibition at 1 µM (GRK6) of the same compound?
A: 8%

Q: What about the inhibition at 1 µM (PRKCB1/PKCB1) of the same compound?
A: 8.6%

Q: What about the inhibition at 1 µM (DAPK3) of the same compound?
A: 25.9%

Q: And the inhibition at 1 µM (DYRK2)?
A: 6.1%

Q: And the inhibition at 1 µM (CAMK2A)?
A: 4.9%

Q: And the inhibition at 1 µM (MAPK11/P38B)?
A: -3.3%

Q: What about the inhibition at 1 µM (NEK6) of the same compound?
A: -13.5%

Q: And the inhibition at 1 µM (CAMKK2)?
A: 25.8%

Q: `C=CC(=O)N1CCC[C@@H](c2c(F)cc(C(N)=O)c3[nH]c4c(c23)CC2(CC4)CC2)C1` [Compound 6-2, (S)-5-(1-acryloylpiperidin-3-yl)-6-fluoro-1,2,4,9-tetrahydrospiro[carbazole-3,1′-cyclopropane]-8-carboxamide] was tested. Which inhibition at 1 µM (DYRK3) did it give?
A: -4.9%

Q: What about the inhibition at 1 µM (FYNA) of the same compound?
A: -5.2%

Q: What about the inhibition at 1 µM (JAK3(JH1)) of the same compound?
A: 12.5%

Q: What about the inhibition at 1 µM (AKT2) of the same compound?
A: 0.4%

Q: What about the inhibition at 1 µM (PAK1) of the same compound?
A: 11.4%

Q: What about the inhibition at 1 µM (JAK2(JH1JH2)) of the same compound?
A: -9.4%

Q: And the inhibition at 1 µM (LTK)?
A: 18.3%

Q: What about the inhibition at 1 µM (GRK6) of the same compound?
A: -3.1%

Q: And the inhibition at 1 µM (PRKCB1/PKCB1)?
A: 8.9%

Q: And the inhibition at 1 µM (DAPK3)?
A: 10%

Q: What about the inhibition at 1 µM (DYRK2) of the same compound?
A: 13.3%

Q: What about the inhibition at 1 µM (CAMK2A) of the same compound?
A: 35.8%

Q: What about the inhibition at 1 µM (MAPK11/P38B) of the same compound?
A: 32.9%

Q: What about the inhibition at 1 µM (NEK6) of the same compound?
A: -5.8%

Q: And the inhibition at 1 µM (CAMKK2)?
A: 0.4%

Q: For `C=CC(=O)N1CCC[C@@H](c2c(F)cc(C(N)=O)c3[nH]c4c(c23)CCC4)C1` [Compound 10-2, (S)-8-(1-acryloylpiperidin-3-yl)-7-fluoro-1,2,3,4-tetrahydrocyclo-penta[b]indole-5-carboxamide], which inhibition at 1 µM (DYRK3) is on record?
A: -3.3%

Q: What about the inhibition at 1 µM (FYNA) of the same compound?
A: -24.6%

Q: What about the inhibition at 1 µM (JAK3(JH1)) of the same compound?
A: 2.4%

Q: What about the inhibition at 1 µM (AKT2) of the same compound?
A: 11.9%

Q: And the inhibition at 1 µM (PAK1)?
A: 6.8%

Q: And the inhibition at 1 µM (JAK2(JH1JH2))?
A: -9.8%

Q: And the inhibition at 1 µM (LTK)?
A: 24.4%

Q: And the inhibition at 1 µM (GRK6)?
A: -1.9%

Q: What about the inhibition at 1 µM (PRKCB1/PKCB1) of the same compound?
A: -9.4%

Q: What about the inhibition at 1 µM (DAPK3) of the same compound?
A: -4.9%

Q: And the inhibition at 1 µM (DYRK2)?
A: 0.3%

Q: And the inhibition at 1 µM (CAMK2A)?
A: 14.7%

Q: What about the inhibition at 1 µM (MAPK11/P38B) of the same compound?
A: 5.7%

Q: And the inhibition at 1 µM (NEK6)?
A: -13.6%

Q: And the inhibition at 1 µM (CAMKK2)?
A: 2.6%

Reference: patent US20220009920A1 (GB005, Inc., priority 2020, published 2022)
